# Reference: patent US20230148214A1, “INDAZOLES AND AZAINDAZOLES AS LRRK2 INHIBITORS” (ESCAPE Bio, Inc., priority 2020, published 2023)
# Columns and labels:
# [1] = biological target: T1, LRRK2 G2019S (Homo sapiens, UniProt Q5S007, G2019S); assay: LRRK2 Kinase Activity Assay (LanthaScreen TR-FRET), G2019S; format: biochemical; details: recombinant G2019S-LRRK2, 25 μM ATP, 400 nM LRRKtide, 60 min; class symbols
# T1 construct: purchased Life Technologies PV4881
# Procedure, shortened: (§1)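 Recombinant wild-type or G2019S LRRK2 incubated with fluorescein-labeled LRRKtide (ERM-based) peptide, ATP and serially diluted compound for 60 min at room temperature.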
# [2] = biological target: T2, LRRK2 WT (Homo sapiens, UniProt Q5S007); assay: LRRK2 Kinase Activity Assay (LanthaScreen TR-FRET), wild type; format: biochemical; details: recombinant wild type LRRK2, 25 μM ATP, 400 nM LRRKtide, 60 min; class symbols
# T2 construct: purchased Life Technologies PR8604B
# Procedure, shortened: as §1
# T1 sequence (Q5S007 whole entry G2019S): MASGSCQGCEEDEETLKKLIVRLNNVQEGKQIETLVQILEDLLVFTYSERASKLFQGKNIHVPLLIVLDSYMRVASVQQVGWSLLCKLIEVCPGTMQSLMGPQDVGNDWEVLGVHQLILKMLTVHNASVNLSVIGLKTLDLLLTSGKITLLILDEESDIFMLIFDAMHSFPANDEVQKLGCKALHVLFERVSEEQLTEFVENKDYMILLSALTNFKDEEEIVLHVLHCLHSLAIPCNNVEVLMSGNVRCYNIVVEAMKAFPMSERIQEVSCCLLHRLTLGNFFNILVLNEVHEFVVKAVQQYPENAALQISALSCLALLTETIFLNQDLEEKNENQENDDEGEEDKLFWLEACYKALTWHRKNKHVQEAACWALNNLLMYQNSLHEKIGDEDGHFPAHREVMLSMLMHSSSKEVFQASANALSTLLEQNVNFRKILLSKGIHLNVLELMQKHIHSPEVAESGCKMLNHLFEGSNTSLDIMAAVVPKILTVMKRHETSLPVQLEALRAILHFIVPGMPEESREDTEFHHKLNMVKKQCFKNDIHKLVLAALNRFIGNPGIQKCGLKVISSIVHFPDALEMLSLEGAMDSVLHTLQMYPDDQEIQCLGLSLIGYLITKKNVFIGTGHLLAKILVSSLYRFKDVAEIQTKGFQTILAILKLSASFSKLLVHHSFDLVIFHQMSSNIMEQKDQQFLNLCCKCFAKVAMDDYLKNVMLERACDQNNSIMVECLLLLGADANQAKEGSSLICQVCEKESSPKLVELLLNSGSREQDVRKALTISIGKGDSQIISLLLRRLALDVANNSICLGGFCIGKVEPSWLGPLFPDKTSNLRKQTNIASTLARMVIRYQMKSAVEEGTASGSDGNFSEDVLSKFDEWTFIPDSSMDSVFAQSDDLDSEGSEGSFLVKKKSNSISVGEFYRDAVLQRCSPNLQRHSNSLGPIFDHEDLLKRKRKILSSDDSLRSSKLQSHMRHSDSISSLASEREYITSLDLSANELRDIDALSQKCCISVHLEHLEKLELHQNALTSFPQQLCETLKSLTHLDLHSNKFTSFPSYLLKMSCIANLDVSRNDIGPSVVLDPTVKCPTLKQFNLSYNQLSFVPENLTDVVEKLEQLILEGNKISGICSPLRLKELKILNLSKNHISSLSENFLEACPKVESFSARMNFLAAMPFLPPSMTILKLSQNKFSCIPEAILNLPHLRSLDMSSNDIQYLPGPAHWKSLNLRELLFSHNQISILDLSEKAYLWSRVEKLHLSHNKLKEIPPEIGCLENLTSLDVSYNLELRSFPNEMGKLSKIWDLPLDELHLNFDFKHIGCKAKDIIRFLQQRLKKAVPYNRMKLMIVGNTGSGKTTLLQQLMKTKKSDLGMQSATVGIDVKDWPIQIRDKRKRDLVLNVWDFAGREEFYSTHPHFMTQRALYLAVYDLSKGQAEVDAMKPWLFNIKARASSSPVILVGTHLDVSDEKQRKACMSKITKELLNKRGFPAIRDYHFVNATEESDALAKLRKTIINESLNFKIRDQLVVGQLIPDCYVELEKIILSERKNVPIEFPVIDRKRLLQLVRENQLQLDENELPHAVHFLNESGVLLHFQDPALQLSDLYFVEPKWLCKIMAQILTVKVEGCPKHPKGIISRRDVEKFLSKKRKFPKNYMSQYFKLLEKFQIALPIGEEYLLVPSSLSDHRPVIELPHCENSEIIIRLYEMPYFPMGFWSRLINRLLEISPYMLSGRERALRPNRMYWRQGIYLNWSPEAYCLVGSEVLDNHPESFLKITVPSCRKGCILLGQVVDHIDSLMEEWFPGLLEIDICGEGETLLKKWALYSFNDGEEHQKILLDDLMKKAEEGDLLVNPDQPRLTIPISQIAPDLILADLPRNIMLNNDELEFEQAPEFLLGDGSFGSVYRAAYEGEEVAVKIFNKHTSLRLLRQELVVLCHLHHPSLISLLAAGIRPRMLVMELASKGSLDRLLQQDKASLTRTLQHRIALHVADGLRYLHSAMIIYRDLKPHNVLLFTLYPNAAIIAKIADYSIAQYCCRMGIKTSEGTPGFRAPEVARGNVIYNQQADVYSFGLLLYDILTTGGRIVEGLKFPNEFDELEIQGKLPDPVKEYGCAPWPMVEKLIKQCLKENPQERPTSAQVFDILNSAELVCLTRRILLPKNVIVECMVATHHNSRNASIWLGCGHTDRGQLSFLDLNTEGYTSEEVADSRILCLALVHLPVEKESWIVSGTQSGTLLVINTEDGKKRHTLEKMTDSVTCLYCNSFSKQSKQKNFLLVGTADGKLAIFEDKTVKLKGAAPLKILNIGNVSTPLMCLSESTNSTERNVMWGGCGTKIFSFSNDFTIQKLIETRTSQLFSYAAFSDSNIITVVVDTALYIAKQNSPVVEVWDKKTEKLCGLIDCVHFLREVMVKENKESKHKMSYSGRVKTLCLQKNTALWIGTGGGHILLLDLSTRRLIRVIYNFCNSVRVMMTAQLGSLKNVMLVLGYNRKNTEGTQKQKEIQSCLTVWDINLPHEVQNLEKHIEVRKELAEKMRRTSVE
# T2 sequence (Q5S007 whole entry): as the sequence (Q5S007 whole entry G2019S) above, with S2019G counted along it
IC50 [1] [nM],IC50 [2] [nM],SMILES
< 100,100 to 1000,"N#Cc1ccc2c(c1)CCC[C@@H]2Nc1ccc2[nH]nc(-c3ccc4cc[nH]c4c3)c2c1 (single isomer, unassigned) [Example 61, 5-((3-(1H-Indol-6-yl)-1H-indazol-5-yl)amino)-5,6,7,8-tetrahydronaphthalene-2-carbonitrile]"
< 100,< 100,"Cn1cc(-c2n[nH]c3ccc(N[C@H]4CCCc5cc(C#N)ccc54)cc23)ccc1=O (single isomer, unassigned) [Example 62, 5-((3-(1-Methyl-6-oxo-1,6-dihydropyridin-3-yl)-1H-indazol-5-yl)amino)-5,6,7,8-tetrahydronaphthalene-2-carbonitrile]"
< 100,100 to 1000,"N#Cc1ccc(-c2n[nH]c3ccc(N[C@H]4CCCc5cc(C#N)ccc54)cc23)cc1 (single isomer, unassigned) [Example 63, 5-((3-(4-Cyanophenyl)-1H-indazol-5-yl)amino)-5,6,7,8-tetrahydronaphthalene-2-carbonitrile]"
100 to 1000,1000 to 10000,"N#Cc1ccc2c(c1)CCC[C@@H]2Nc1ccc2[nH]nc(C3=CCCC3)c2c1 (single isomer, unassigned) [Example 65, 5-((3-(Cyclopent-1-en-1-yl)-1H-indazol-5-yl)amino)-5,6,7,8-tetrahydronaphthalene-2-carbonitrile]"
< 100,100 to 1000,"N#Cc1ccc2c(c1)CCC[C@@H]2Nc1ccc2[nH]nc(-c3ccc(F)c(C(=O)O)c3)c2c1 (single isomer, unassigned) [Example 66, 5-(5-((6-Cyano-1,2,3,4-tetrahydronaphthalen-1-yl)amino)-1H-indazol-3-yl)-2-fluorobenzoic acid]"
< 100,< 100,"N#Cc1ccc2c(c1)CCC[C@@H]2Nc1ccc2[nH]nc(-c3ccc4scnc4c3)c2c1 (single isomer, unassigned) [Example 67, 5-((3-(Benzo[d]thiazol-5-yl)-1H-indazol-5-yl)amino)-5,6,7,8-tetrahydronaphthalene-2-carbonitrile]"
< 100,< 100,"N#Cc1ccc2c(c1)CCC[C@@H]2Nc1ccc2[nH]nc(-c3cccc(C(F)F)c3)c2c1 (single isomer, unassigned) [Example 68, 5-((3-(3-(Difluoromethyl)phenyl)-1H-indazol-5-yl)amino)-5,6,7,8-tetrahydronaphthalene-2-carbonitrile]"
< 100,< 100,"CONC(=O)c1cccc(-c2n[nH]c3ccc(N[C@H]4CCCc5cc(C#N)ccc54)cc23)c1 (single isomer, unassigned) [Example 69, 3-(5-((6-Cyano-1,2,3,4-tetrahydronaphthalen-1-yl)amino)-1H-indazol-3-yl)-N-methoxybenzamide]"
< 100,100 to 1000,"N#Cc1ccc2c(c1)CCC[C@@H]2Nc1ccc2[nH]nc(-c3ccc([N+](=O)[O-])cc3)c2c1 (single isomer, unassigned) [Example 70, 5-((3-(4-Nitrophenyl)-1H-indazol-5-yl)amino)-5,6,7,8-tetrahydronaphthalene-2-carbonitrile]"
< 100,< 100,"COc1ccc(-c2n[nH]c3ccc(N[C@H]4CCCc5cc(C#N)ccc54)cc23)cc1OC (single isomer, unassigned) [Example 71, 5-((3-(3,4-Dimethoxyphenyl)-1H-indazol-5-yl)amino)-5,6,7,8-tetrahydronaphthalene-2-carbonitrile]"
< 100,< 100,"N#Cc1ccc2c(c1)CCC[C@@H]2Nc1ccc2[nH]nc(-c3ccc(N4CCOCC4)cc3)c2c1 (single isomer, unassigned) [Example 72, 5-((3-(4-Morpholinophenyl)-1H-indazol-5-yl)amino)-5,6,7,8-tetrahydronaphthalene-2-carbonitrile]"
